Key:
Penicillium digitatum [1] = assay: Natural infection of orange and lemon fruit, semi-commercial on line spray treatment; assay type: in vivo; conditions: line spray within 48 hours after harvest, 50-55° F., after 3 weeks
From the text: Additional tests were also done to determine the effect of different combinations of biochemicals and microorganisms on natural infections of citrus fruit. Orange and lemon fruit from field bins were washed on line following standard commercial practices [Standard Pre Chlorine was (50 ppm); size and color blemish sorting, and randomized]. Thereafter the fruit was washed and treated with either water, a yeast cell suspension containing 0.1% lysozyme, or Imazalil using an on line spray system. Each treatment consisted of at least 8 to 13 boxes of fruit; each box representing a replicate of approximately 60 to 100 fruit. The fruit was held at 50-55° F. and the percentage of decay was determined after 3 weeks.

Botrytis cinerea = assay: Inhibition of spore germination in 24-well microtiter dish; assay type: cell-based; conditions: for Inhibition of Germination (%) Botrytis cinerea: five hundred spores per well, 0.2% maltose extract broth, 24° C., after 24 hours
Experimental: The inhibitory activity of antifungal enzymes, in this example, lysozyme and lyticase, against the pathogen Botrytis cinerea, was determined in a 24-well microtiter dish. Autoclaved solutions of 0.2% maltose extract broth were amended with membrane-sterilized solutions of lysozyme and lyticase to obtain a concentration of 0.1% and 0.5% of lysozyme and lyticase, respectively. One hundred microliters of the enzyme solution was dispensed into each well. Each well was inoculated with five hundred spores of B. cinerea. Four replicates of eight wells were used for each treatment. Microtiter dishes were incubated in the dark at 24° C. Percent spore germination was determined after 24 hours. Spores were inhibited by either enzyme.

P. expansum = assay: Curative effect on established infection of apple fruit (treated 24 hours after inoculation); assay type: in vivo, Penicillium expansum; conditions: treatment 24 hours after inoculation
Experimental: (§1) Yeast cells from 48 hour old cultures of C. saitoana were pelleted by centrifugation, resuspended in sterile distilled water, and centrifuged. Pellets were suspended in water, 0.01% and 0.1% lysozyme of 0.6% lyticase, and the concentration of the yeast suspension was adjusted to 10^8 CFU/ml.
(§2) Apple, orange, and lemon fruit were individually wounded and each wound was treated with fifty microliters of one of the following treatments:
(§3) Fruit wounds were either treated with the different treatments and then inoculated with 20 μL of a pathogen spore suspension to determine protective effects, or inoculated with a pathogen spore suspension and 24 hours later were treated with the different treatments to determine curative effects. Apple wounds were inoculated (i.e., pathogens were placed in the wound) with the pathogens B. cinerea and P. expansum, whereas orange and lemon wounds were inoculated with P. digitatum. Treated fruit were incubated at 24° C. in plastic trays at high humidity. For each treatment, 20 to 100 fruit were arranged in a randomized complete block design. Percent infection was determined for each treatment after 7 days of storage. The tests were repeated twice. […] The effect was greater than for either agent alone.
(§4) In the past, the lack of curative activity has been identified as a major limitation of biological approaches to pathogen control.

Candida saitoana = assay: Survival of Candida saitoana in enzyme solutions (yeast maltose broth); assay type: cell-based; conditions: for Yeast Cell Counts (CFU/ml) 1 day / Yeast Cell Counts (CFU/ml) 4 days: inoculated with 10^4 yeast cells/ml, yeast maltose broth
Experimental: The effect of lysozyme and lyticase on the survival of C. saitoana in yeast maltose broth was also determined. Culture flasks containing sterile solutions of 0.2% yeast maltose broth were amended with membrane-sterilized solutions of lysozyme and lyticase to obtain a concentration of 0.1% and 0.6% of lysozyme and lyticase, respectively. Each flask was started with approximately 10^4 colony forming units (CFU) of yeast and the flasks were incubated on an orbital shaker set at 200 rpm. Samples were collected and dilution-plated in duplicate on yeast-maltose agar medium. The plates were incubated 24° C. and colonies were counted after 48 h.

P. digitatum = assay: Curative effect on established infection of citrus fruit (treated 24 hours after inoculation); assay type: in vivo, Penicillium digitatum; conditions: treatment 24 hours after inoculation
Experimental: as §1, §2, §3, §4

Penicillium digitatum [2] = assay: Protective effect on decay of wounded orange and lemon fruit, treated then challenge inoculated; assay type: in vivo; conditions: wounds treated then inoculated with 20 μL P. digitatum 10^4 conidia/ml, 7 days at 24° C.
Experimental: as §1, §2
yeast cell suspension (C. saitoana);
yeast cell suspension containing 0.01% or 0.1% lysozyme;
yeast cell suspension containing 0.6% lyticase;
as §3

| Compound | Infected Fruit (%) Penicillium digitatum Lemon (Penicillium digitatum [1]; lemon) [b %] | Infected Fruit (%) Penicillium digitatum Orange (Penicillium digitatum [1]; orange) [b %] | Inhibitory activity against Botrytis cinerea spores (in words) (Botrytis cinerea) | Inhibition of Germination (%) Botrytis cinerea (Botrytis cinerea) [%] | Effect on established infection caused by P. expansum (in words) (P. expansum) | Effect on growth / survival of the yeast C. saitoana (in words) (Candida saitoana) | Yeast Cell Counts (CFU/ml) 1 day (Candida saitoana) | Yeast Cell Counts (CFU/ml) 4 days (Candida saitoana) | Effect on established infection caused by P. digitatum (in words) (P. digitatum) | Infected Fruit (%) Penicillium digitatum Lemon (Penicillium digitatum [2]) [b %] | Infected Fruit (%) Penicillium digitatum Orange (Penicillium digitatum [2]) [%] | Infected Fruit (%) Penicillium digitatum Orange (Penicillium digitatum [2]; listed as 0.01% lysozyme) [b %] | Infected Fruit (%) Penicillium digitatum Orange (Penicillium digitatum [2]; listed as 0.1% lyticase) [b %] |
| --- | --- | --- | --- | --- | --- | --- | --- | --- | --- | --- | --- | --- | --- |
| C=CCOC(Cn1ccnc1)c1ccc(Cl)cc1Cl (stereo not shown) [Imazalil] | 4.6 | 2.4 |  |  |  |  |  |  |  |  |  |  |  |
| lysozyme |  |  | inhibitory | 100 | little effect | no effect | >2.0 × 10^5 CFU/ml | >2.0 × 10^5 CFU/ml | little effect | 86 | 88 | 88 |  |
| lyticase |  |  | inhibitory | 100 | little effect | no effect | >2.0 × 10^5 CFU/ml | >2.0 × 10^5 CFU/ml | little effect | 85 | 88 |  | 88 |
